Columns and labels:
[1] = biological target: T1, hTLR8 (Homo sapiens, UniProt Q9NR97); test: HEK Blue hTLR8 cell assay of free TLR7/8 agonists; assay type: cell-based; details: HEK Blue hTLR8 cells, free agonist
T1 construct: expressed in transfected cells; host or cells: HEK Blue hTLR8 cells
T1 sequence (Q9NR97 27-1041): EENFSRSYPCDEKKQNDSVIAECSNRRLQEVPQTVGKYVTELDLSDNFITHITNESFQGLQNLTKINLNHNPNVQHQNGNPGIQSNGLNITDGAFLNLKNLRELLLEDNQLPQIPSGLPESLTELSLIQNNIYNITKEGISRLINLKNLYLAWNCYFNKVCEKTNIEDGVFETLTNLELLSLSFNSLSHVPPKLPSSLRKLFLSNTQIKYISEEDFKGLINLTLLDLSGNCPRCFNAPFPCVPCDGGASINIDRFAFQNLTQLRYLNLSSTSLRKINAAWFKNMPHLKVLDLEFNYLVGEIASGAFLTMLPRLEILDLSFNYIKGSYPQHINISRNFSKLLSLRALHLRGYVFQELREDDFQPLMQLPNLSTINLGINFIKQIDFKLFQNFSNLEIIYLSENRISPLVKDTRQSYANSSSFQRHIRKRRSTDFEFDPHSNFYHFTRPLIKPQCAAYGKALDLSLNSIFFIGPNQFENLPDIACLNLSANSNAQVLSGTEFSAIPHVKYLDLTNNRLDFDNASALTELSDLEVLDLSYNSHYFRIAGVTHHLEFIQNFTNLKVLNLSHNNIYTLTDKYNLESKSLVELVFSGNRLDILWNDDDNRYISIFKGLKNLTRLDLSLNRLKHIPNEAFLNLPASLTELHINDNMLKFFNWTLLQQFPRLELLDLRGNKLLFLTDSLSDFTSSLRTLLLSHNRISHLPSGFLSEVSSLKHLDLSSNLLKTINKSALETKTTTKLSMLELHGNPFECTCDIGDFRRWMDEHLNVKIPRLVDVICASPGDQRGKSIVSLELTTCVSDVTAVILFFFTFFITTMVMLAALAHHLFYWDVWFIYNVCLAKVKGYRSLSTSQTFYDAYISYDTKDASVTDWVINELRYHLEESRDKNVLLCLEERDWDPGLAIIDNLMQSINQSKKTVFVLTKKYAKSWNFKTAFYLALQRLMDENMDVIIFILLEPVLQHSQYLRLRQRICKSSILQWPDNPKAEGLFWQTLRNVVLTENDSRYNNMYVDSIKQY
Protocol: (§1) This example covers toll-like receptor 7 (TLR7) and toll-like receptor 8 (TLR8) selectivity of imidazoquinoline agonists. Assessment of TLR7 and TLR8 selectivity for the free TLR7/8 agonists was performed using HEK Blue hTLR7 and hTLR8 cells over a large dose range of compounds. […] Activities were determined based on calculated EC50 (in μM) in each cell line, and are summarized in TABLE 4 below, with columns providing targets and rows providing compounds.

[2] = biological target: T2, hTLR7 (Homo sapiens, UniProt Q9NYK1); test: HEK Blue hTLR7 cell assay of free TLR7/8 agonists; assay type: cell-based; details: for EC50: HEK Blue hTLR7 cells, free agonist; for TLR7/TLR8: ratio of EC50 hTLR7 to EC50 hTLR8
T2 construct: expressed in transfected cells; host or cells: HEK Blue hTLR7 cells
T2 sequence (Q9NYK1 27-1049): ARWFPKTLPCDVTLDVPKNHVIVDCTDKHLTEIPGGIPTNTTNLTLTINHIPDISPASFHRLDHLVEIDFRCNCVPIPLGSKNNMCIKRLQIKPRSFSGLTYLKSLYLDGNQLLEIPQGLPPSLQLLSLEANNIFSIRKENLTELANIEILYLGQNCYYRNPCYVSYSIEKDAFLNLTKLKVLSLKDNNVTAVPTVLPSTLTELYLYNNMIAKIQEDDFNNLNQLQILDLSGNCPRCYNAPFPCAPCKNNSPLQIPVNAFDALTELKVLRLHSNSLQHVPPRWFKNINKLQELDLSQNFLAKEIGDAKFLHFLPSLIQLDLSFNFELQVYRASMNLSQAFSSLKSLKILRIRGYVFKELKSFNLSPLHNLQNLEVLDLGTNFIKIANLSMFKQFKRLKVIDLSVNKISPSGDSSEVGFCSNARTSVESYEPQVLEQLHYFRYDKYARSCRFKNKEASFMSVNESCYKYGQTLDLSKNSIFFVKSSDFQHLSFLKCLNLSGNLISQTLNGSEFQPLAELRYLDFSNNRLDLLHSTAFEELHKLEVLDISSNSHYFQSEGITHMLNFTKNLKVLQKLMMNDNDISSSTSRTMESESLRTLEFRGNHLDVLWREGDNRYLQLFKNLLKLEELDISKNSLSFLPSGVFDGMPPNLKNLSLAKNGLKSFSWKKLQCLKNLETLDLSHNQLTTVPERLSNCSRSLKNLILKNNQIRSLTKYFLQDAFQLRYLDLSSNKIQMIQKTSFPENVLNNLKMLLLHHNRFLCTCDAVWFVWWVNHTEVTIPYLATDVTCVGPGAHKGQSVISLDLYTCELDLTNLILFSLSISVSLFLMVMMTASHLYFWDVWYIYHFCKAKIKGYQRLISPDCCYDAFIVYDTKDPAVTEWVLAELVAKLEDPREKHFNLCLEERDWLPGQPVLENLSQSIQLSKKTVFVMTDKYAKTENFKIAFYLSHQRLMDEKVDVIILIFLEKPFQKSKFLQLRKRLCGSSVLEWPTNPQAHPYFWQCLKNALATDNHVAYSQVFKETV
Protocol: as §1

[3] = tested on: primary human PBMCs; test: Cytokine induction in primary human PBMCs by small molecule TLR7/8 agonists (Luminex); assay type: cell-based; details: free drug
Protocol: This example covers dose dependent human immune cell activation by small molecule TLR7/8 agonists. Primary human PBMCs were isolated from peripheral whole blood from human donors and were subjected to treatment with increasing concentrations of the agonists diluted in PBS. Cell culture supernatants were harvested 24 h after treatment and analyzed for induction of cytokines via multiplex ELISAs (Luminex).
Several small molecule TLR7/8 agonists were assessed for their ability to activate human immune cells in a dose dependent manner. Primary human PBMCs were isolated from peripheral whole blood from human donors and were subjected to treatment with increasing concentrations of the agonists diluted in PBS. 24 h after treatment cell culture supernatants were harvested and analyzed for induction of cytokines via multiplex ELISAs (Luminex).

[4] = SEC analysis of ADC aggregation (high molecular weight species) in plasma; assay type: physicochemical; details: ADC incubated with human or mouse plasma, FIG. 9
Protocol: Method I: Size-exclusion chromatography (SEC) was performed with a Waters ACQUITY UPLC system and an Acquity UPLC Protein BEH SEC Column, (200 Å, 1.7 μm, 4.6×150 mm, PN: 186005225). The mobile phase used was 7.5% isopropanol in 92.5% aqueous (25 mM sodium phosphate, 350 mM NaCl, pH 6.8), v/v. Elution was performed isocratically at a flow rate of 0.4 mL/min at ambient temperature.
To determine if any of these differences in activity potentially resulted from increases in aggregation as a subsequent result of changes in charge, SEC analysis was performed. ADCs containing either S18a (methyl ester) or S18b (carboxylic acid) were incubated with both human or mouse plasma and assessed for the formation of high molecular weight species (HMW) over time.

[5] = tested on: Renca tumors; test: Renca kidney carcinoma model in Balb/c mice; assay type: in vivo, mouse; details: ADC, q7dx3 from ~100 mm^3, FIG. 14
Protocol: The difference in anti-tumor activity of the S18a and S18b conjugates was also assessed in the Renca kidney model. In this model, mice bearing Renca tumors were treated q7dx3 when tumors reached ˜100 mm^3 as indicated, and followed for mean group tumor growth (FIG. 14, top) and survival (FIG. 14, bottom) over time.
This example covers cancer treatment with EphA2 targeted TLR agonists. […] Balb/c mice were implanted with Renca tumor cells and when cells reached 100 mm^3 they were treated Q7dx3 treatments with 2.4 mg/kg of the indicated IDC, either non targeting isotype or an EphA2 targeting mAb.

CCCCc1nc2c(N)nc3cc(C(=O)OC)ccc3c2n1CCCCCN [S14a]
EC50 [1]: 8.84 µM | EC50 [2]: 2.53 µM | TLR7/TLR8 [2]: 0.28

CCCCc1nc2c(N)nc3cc(C(=O)OC)ccc3c2n1Cc1ccc(CN(C)C)cc1 [S18a]
IL12p40 and IL1β responses ([3]; FIG. 5): lower responses of both cytokines | potency and activity of cytokine induction (IL6, TNFα, MCP1, IP10) ([3]; ranking, FIG. 30): other two most potent compounds | EC50 [1]: 10.3 µM | aggregation (formation of high molecular weight species over time) [4]: no significant difference in the amounts of aggregation | EC50 [2]: 0.44 µM | TLR7/TLR8 [2]: 0.04 | tumor growth and survival [5]: some tumor growth benefit though no real survival benefit
